# Measured values reported in patent US20100104546A1, “MODULATORS OF ANTIGEN-DEPENDENT T CELL PROLIFERATION” (CHILDREN, YOUTH AND WOMEN'S HEALTH SERVICE, priority 2007, published 2010).
# Tested on: splenocytes
# Test: Ex-vivo antigen (SRBC)-dependent splenocyte proliferation after administration to SRBC-immunized mice (thymidine incorporation)
# Type: in vivo, Balb/c mice
# Conditions: ip in mouse serum, between 10-80 mg/kg
# Procedure: Mice were immunized with SRBC for 5 days. β-oxa-21:3n-3 was delivered in DMSO and injected intraperitoneally at the indicated doses. After 2 h spleens were removed and single cell suspensions were prepared. The splenocytes were cultured for 3 days in the presence (□), or absence (▪) of SRBC. Thymidine incorporation for final 16 hours of culture was determined. The data is expressed as mean±SEM of 3 separate experiments each in triplicate.
# Mice were immunized with SRBC for 5 days. Then β-oxa-21:3n-3 dissolved in syngeneic mouse serum and injected intraperitoneally (A), intravenously (B) or gavaged/orally (C) at the indicated concentrations. After 2 h spleens were removed, single cell suspensions prepared and the splenocytes cultured for 3 days in the presence (▪), or absence (□) of SRBC. Thymidine incorporation for final 16 hours of culture was determined. The data is presented as the mean±SEM of 3 separate experiments separate experiments, each in quintuplets.
# Mice were immunized with SRBC. After 5 days they were given β-thia-21:3n-3 at the indicated doses i.p. After 2 hours the spleens were removed and processed into single cell suppressions. These were then cultured in the presence (□), or absence of (▪) of SRBC to assess the proliferation. The results are expressed as mean±SEM of 3 experiments. (B) Effect of β-oxa-21:3n-3 on tetanus toxoid (TT)-induced ex vivo lymphocyte responses. Mice were immunized with TT subcutaneously and after 7 days were given β-oxa-21:3n-3 in mouse serum, intraperitoneally. Two hours later the spleen removed, single cell suspension prepared and examined for lymphoproliferation responses to TT in 5 day cultures. The results are expressed as mean±SEM of 3 experiments.
# 6-7 weeks old Balb/c mice were injected subcutaneously with 100 μl of 10% sheep red blood cells (IMVS, Inc., Adelaide, Australia) After 5 days 100 ul of β-oxa-21:3n-3 at indicated amounts were injected intraperitoneally, intravenously or gavaged orally. In another experimental set up mice were given β-tha-21:3n-3 i.p. In a third approach mice were infected subcutaneously with 100 μl of Tetanus Toxoid (2,500 Lf/ml). Then 7 days later were given β-oxa-21:3n-3. At indicated time points mice were sacrificed and spleens were removed. Single cell suspensions were prepared and white blood cells (WBC) were enriched by passing through Ficoll-Paque Plus (GE Healthcare). Cells were washed with RPMI-1640 containing 10% fetal bovine serum, 10 mM Hepes, antibiotics and glutamine (RPMI-10) and counted using an automated Cell-Dyne 3500R (Abbott, Inc. MA) instrument. Cells were viable (>98%) as judged by trypan blue exclusion. (β-oxa-21:3n-3)- or vehicle-treated mouse samples (200,000/well) were mixed either with SRBC (600,000/well) with 100 μl of Tetanus toxoid (50 Lf/ml) or phytohaemaglutinin (PHA) (2 μg/ml) or with PHA plus phorbol myristate acetate (PMA) (10 ng/ml) or with PMA plus calcium ionophore A23187 ([…]). Cells were cultured in 96 well U bottom plates (Nunc, Inc. Denmark) for 3 days (except for TT −5 days) at 37° C. under humidified air containing 5% CO2. At some instances 50 μl of supernatants were transferred to a new plate and frozen immediately at −70° C. to be used for cytokine measurements. Thymidine (50 μl, 1 μCi/well) was added at final 16 hours of culture. Cells were harvested and thymidine incorporation was determined using a beta scintillation counter.
substance,measurement,value
β-thia-21:3n-3,lymphoproliferative response to SRBC,inhibition of the lymphoproliferative response in a dose dependent manner
